# Read-outs that look alike come from different tables or passages of the source. Marks after values point to notes of the source that are not given here.
# Legend:
# breast and colon lines = assay: Enhancement of cytotoxicity of other chemotherapeutic agents by arginine butyrate; details: evaluated with arginine butyrate
# Description: Other chemotherapeutic agents with non-overlapping mechanisms of antiproliferative activity such as 5-fluorouracil, taxol and interferon alpha have been evaluated with arginine butyrate.
# [1] = system: A549 (non-small cell cancer); assay: Survival fraction after 72 hours exposure (MTT assay); format: cell-based, human
# Experimental: (§1) Growth inhibition was measured by the MTT assay. […] PC-3=prostate cancer; A549=non-small cell cancer; OvCar=ovarian cancer; CaCo=colon cancer; MCF-7=breast cancer; and SW900=non-small cell lung cancer.
# OvCar (ovarian cancer) = assay: as above; format: cell-based, human
# Experimental: (§2) Growth inhibition was measured by the MTT assay. Survival fraction is calculated from at least 3 experiments, and differences in survival fraction are statistically significant P<0.05, using the Paired Two-Sample For Means T-Test. […] PC-3=prostate cancer; A549=non-small cell cancer; OvCar=ovarian cancer; CaCo=colon cancer; MCF-7=breast cancer; and SW900=non-small cell lung cancer.
# PC-3 (prostate cancer) = assay: as above; format: cell-based, human
# Experimental: as §2
# K562 = assay: DNA fragmentation by flow cytometry; format: cell-based, human; details: FIGS. 4 and 5
# Description: It has been shown that sodium butyrate can induce apoptosis in human tumors or tumor cell lines (L. A. Noorduyn et al., Histopathology 21:59, 1992).
# [2] = system: EBV+ and EBV− cell lines (X50-7, Akata, HPB-ALL, Nalm-6); assay: Growth of EBV+ and EBV− cell lines; format: cell-based, human; details: both EBV+ and EBV− cell lines
# Description: In some experiments sodium was used instead of arginine to neutralize butyric acid. […] Cell lines used were X50-7, a latent EBV+ B-cell lymphoma; Akata, a producer EBV+ Burkitt's lymphoma; HPB-ALL, a T-cell line; and Nalm-6, an EBV− B-cell line. Growth curves for X50-7 cells in different concentrations of sodium butyrate are shown in FIG. 8b and the growth curves for HPB-ALL cells in different concentrations of sodium butyrate are shown in FIG. 8c.
# [3] = system: post-transplant EBV-induced lymphomas; assay: Compassionate treatment of post-transplant EBV-induced lymphomas; format: in vivo, human; details: patient one; GCV for 2 weeks before arginine butyrate
# Description: Finally, two patients with post-transplant EBV-induced lymphomas have been treated on a compassionate basis with IRB approval. Each patient is summarized below.
# Patient one was a person, 2 months post lung transplant. They were receiving cyclosporin to prevent impending rejection. They developed massive lymphadenopathy in mediastinum and hilum, with progressive respiratory failure. They were biopsy positive for EBV, and the tumor cells were monoclonal and of donor origin.
# They had been off all therapy, except ganciclovir, for 3 weeks when they started arginine butyrate at 1,000 mg/kg/day. […] They eventually died from Aspergillus infection.
# The second patient was a person, 4 months post-allogeneic bone marrow transplant for leukemia. They were receiving cyclosporin to prevent rejection. They developed cervical, mediastinal and abdominal lymphadenopathy, with brain metastases. A biopsy was positive for EBV and tumor cells were monoclonal confirming the diagnosis of LPD.
# They had been treated with and had no response to XRT, CHOP, or α-IFN plus gamma globulin. They had been off all therapy for 2 weeks and was cachectic, too weak to ambulate, paraplegic, in constant pain and had been admitted for terminal care, when they started arginine butyrate at 1,000 mg/kg/day and ganciclovir.
# CaCo (colon cancer) = assay: Survival fraction after 72 hours exposure (MTT assay); format: cell-based, human; details: 72 hour
# Experimental: as §1
# [4] = system: SW900 (non-small cell lung cancer); assay: as above; format: cell-based, human
# Experimental: as §2
# MCF-7 (breast cancer) = assay: as above; format: cell-based, human
# Experimental: as §2
# [5] = system: Fibroblasts (mouse BALB/c-3T3); assay: MIC on cell proliferation, 7 days in culture; format: cell-based
# Experimental: (§3) The ability of arginine butyrate to induce differentiation has been evaluated and is measured by inhibition of growth, in some of the neoplastic cell types previously reported to be sensitive to (sodium) butyric acid, and found arginine butyrate to be as potent as butyric acid. We have also extended that work to additional cell types and found Arginine Butyrate to induce differentiation in these new cell types. Table 1 lists the cell types tested and the minimum inhibitory concentration (MIC) of sodium butyrate (NaB) and arginine butyrate (ArgB) on these cell lines. The MIC is the lowest dose that prevents all growth over the 7 days that the cells are maintained in culture, that is the minimum dose that prevents an increase in cell number. […] The […] of ArgB and NaB were equivalent on all cell lines tested.
# [6] = system: Fibroblasts (normal human); assay: MIC on cell proliferation, 7 days in culture; format: cell-based; details: lowest dose that prevents all growth over 7 days
# Experimental: as §3
# [7] = system: Colonic Adenocarcinoma (HT29); assay: MIC on cell proliferation, 7 days in culture; format: cell-based, human
# Experimental: as §3
# Erythroleukemia (K562) = assay: MIC on cell proliferation, 7 days in culture; format: cell-based, human
# Experimental: as §3
# Choriocarcinoma (JAR) = assay: MIC on cell proliferation, 7 days in culture; format: cell-based, human
# Experimental: as §3
# Rhabdomyosarcoma = assay: MIC on cell proliferation, 7 days in culture; format: cell-based, human
# Experimental: as §3
# Gastric Carcinoma (AGS) = assay: MIC on cell proliferation, 7 days in culture; format: cell-based, human
# Experimental: as §3
# Myeloid Leukemia (HL60) = assay: MIC on cell proliferation, 7 days in culture; format: cell-based, human
# Experimental: as §3
# Osteosarcoma (HOS) = assay: MIC on cell proliferation, 7 days in culture; format: cell-based, human
# Experimental: as §3
# [8] = children with acute myelogenous leukemia or neuroblastoma; 0.5-1.5 g/kg/day for 14 days and 10 g/kg/day IV; cited from earlier work
# [9] = Clinical toxicity in patients; format: in vivo, human; details: adults; IV infusion of similar doses
# Experimental: Clinical experience with butyrates have been performed in children with acute myelogenous leukemia in Israel, and in children with neuroblastoma (K. Prasad, Life Sci. 27:1351-58, 1980). […] Eleven pediatric patients and twelve adults with β-hemoglobinopathies were treated with IV arginine butyrate at a starting dose of 500 mg/kg/day for 2-7 weeks. If no side effects were noted, the rate was increased by 250 mg/kg/day to a final rate of 1500 mg/kg/day in 4 patients, and 2000 mg/kg/day in 2 patients. […] This rise in BUN returned to normal within 12 hours of discontinuation of drug, and is thought to be secondary to effect of arginine upon ureagenesis. […] Peak serum levels of butyrate ranged between 0.04-0.05 mM, and butyrate was not detectable 15 minutes after infusion was discontinued. Plasma arginine levels were also rapidly cleared, with a T1/2 of 15 minutes, and baseline arginine levels were reached within 12 hours after discontinuation of infusion.
# Three patients with refractory neoplasms (breast, melanoma, adenocarcinoma, of unknown primary) have been enrolled and completed 1-2 cycles of arginine butyrate as a dose of 500 mg/kg/day over 6-8 hours for 10 days.
# Three patients (with breast cancer, bowel cancer or Hodgkins disease) have completed two cycles of arginine butyrate at a dose of 750 mg/kg/day for 10 days. […] Otherwise, there was no other objective measures of organ progressed after treatment was topped. […] There was a further resolution of the disease during the second cycle. Disease progression was noted one month after second cycle was completed. At 1000 mg/kg/day, 3 patients have been enrolled on study.
# An inter-group dose-escalation study is being conducted in patients with refractory malignancies. There are 3 patients per group with the dose levels starting at 500 mg/kg/day, and increasing by 250 mg/kg/day per group, if toxicity permits. Doses are given by 8 hour IV infusion, daily, for 5 days times 2 weeks, with weekends off, for a total of 10 days of treatment per cycle.
# [10] = Table 3, 1 CP (1.0 μg/ml), 72 hours
# [11] = Table 3, 2 CP (2.0 μg/ml), 72 hours
# [12] = Table 4, 0.1 A (0.1 μg/ml), 72 hour
# [13] = Table 4, 0.5 A (0.5 μg/ml), 72 hour
smiles,measurement,setting,value
CC(=O)O[C@H]1C(=O)[C@@]2(C)[C@H]([C@H](OC(=O)c3ccccc3)[C@]3(O)C[C@H](OC(=O)[C@H](O)[C@@H](NC(=O)c4ccccc4)c4ccccc4)C(C)=C1C3(C)C)[C@]1(OC(C)=O)CO[C@@H]1C[C@@H]2O [taxol],concentration of agent at which enhancement of cytotoxicity was observed,breast and colon lines,exceeding 10 mM
"N.N.[Cl][Pt][Cl] [CP, cisplatin]",Survival Fraction,[1]; [10],0.77*
same,Survival Fraction,[1]; [11],0.54*
same,Survival Fraction,OvCar (ovarian cancer); [10],0.91
same,Survival Fraction,OvCar (ovarian cancer); [11],0.45*
same,Survival Fraction,PC-3 (prostate cancer); [10],0.92
same,Survival Fraction,PC-3 (prostate cancer); [11],0.49*
O=P1(N(CCCl)CCCl)NCCCO1 (stereo not shown) [cyclophosphamide],apoptotic activity on addition of arginine butyrate,K562,Lack of enhancement
C[C@@H]1C[C@@H]([C@H](O)CC2CC(=O)NC(=O)C2)C(=O)[C@@H](C)C1 [cyclohexamide],apoptotic activity on addition of arginine butyrate,K562,increased their apoptotic activity
"Nc1nc(O)c2ncn(COC(CO)CO)c2n1 [GCV, ganciclovir, reference compound]",levels generally cytocidal,[2],above 30 μM
same,tumor response,[3],showed no response
COc1cc([C@@H]2c3cc4c(cc3[C@@H](O[C@@H]3O[C@@H]5CO[C@@H](C)O[C@H]5[C@H](O)[C@H]3O)[C@H]3COC(=O)[C@H]23)OCO4)cc(OC)c1O [etoposide],apoptotic activity on addition of arginine butyrate,K562,increased their apoptotic activity
CC[C@@]1(O)C(=O)OCc2c1cc1n(c2=O)Cc2cc3ccccc3nc2-1 [camptothecin],apoptotic activity on addition of arginine butyrate,K562,increased their apoptotic activity
"COc1cccc2c1C(=O)c1c(O)c3c(c(O)c1C2=O)C[C@@](O)(C(=O)CO)C[C@@H]3O[C@H]1C[C@H](N)[C@H](O)[C@H](C)O1 [A, adriamycin]",Survival Fraction,"CaCo (colon cancer); Table 4, 0.1 A (0.1 μg/ml)",0.68*
same,Survival Fraction,"CaCo (colon cancer); Table 4, 0.5 A (0.5 μg/ml)",0.62*
same,Survival Fraction,[1]; [12],0.59*
same,Survival Fraction,[1]; [13],0.59*
same,apoptotic activity on addition of arginine butyrate,K562,increased their apoptotic activity
same,Survival Fraction,OvCar (ovarian cancer); [12],0.83*
same,Survival Fraction,OvCar (ovarian cancer); [13],0.81*
same,Survival Fraction,"[4]; Table 4, 0.1 A (0.1 μg/ml)",0.82*
same,Survival Fraction,"[4]; Table 4, 0.5 A (0.5 μg/ml)",0.76*
same,Survival Fraction,PC-3 (prostate cancer); [12],0.72*
same,Survival Fraction,PC-3 (prostate cancer); [13],0.68*
same,Survival Fraction,"MCF-7 (breast cancer); Table 4, 0.1 A (0.1 μg/ml)",0.73*
same,Survival Fraction,"MCF-7 (breast cancer); Table 4, 0.5 A (0.5 μg/ml)",0.69*
"CCCC(=O)[O-].[Na+] [NaB, sodium butyrate, reference compound]",MIC,[5],">5,000 μM"
same,MIC,[6],">5,000 μM"
same,MIC,[7],"2,000 μM"
same,MIC,Erythroleukemia (K562),">5,000 μM"
same,MIC,Choriocarcinoma (JAR),156 µM
same,MIC,Rhabdomyosarcoma,156 µM
same,MIC,Gastric Carcinoma (AGS),"2,000 μM"
same,MIC,Myeloid Leukemia (HL60),78 µM
same,MIC,Osteosarcoma (HOS),312 µM
same,toxic side effects,[8],without toxic side effects
same,toxic side effects,[9],no toxic side effects
